Source: patent publication US20090093482A1, “THERAPEUTIC COMPOSITIONS AND METHODS” (Gilead Sciences, Inc., priority 2007, published 2009)
Values joined by “and” are separate entries in the source; they are usually repeats but may differ in a detail not shown here. Equal values may be shown once.

Experiments:
[1] = Pharmacokinetic interaction between lopinavir/r and the Compound, steady-state PK in healthy volunteers; type: in vivo, human; conditions: for Exposures when coadministered with the Compound: LPV/r 400/100 mg BID + the Compound 125 mg QD; for AUCtau % GMR (90% CI) / Cmax % GMR (90% CI) / Ctau % GMR (90% CI): 14-day periods
[2] = Compartmental modeling in WinNonlin of Compound doses using the observed lopinavir interaction data; design: species or system human; conditions: modeled
Text: Consideration was given to achieving equivalent Compound exposures in patients receiving and not receiving lopinavir using pharmacokinetic (bio-) equivalence comparisons (Pharsight Corporation, Mountain View, Calif., USA). Consideration was also given to minimizing the number of individuals with extreme outliers in (low or high) exposures.

[3] = LPV/r 400/100 mg BID + the Compound 125 mg QD vs LPV/r 400/100 mg BID alone, n = 13
[4] = the Compound 125 mg QD + LPV/r 400/100 mg BID vs the Compound/r 125/100 mg QD alone, n = 14

Exposures when coadministered with the Compound [1]	AUCtau % GMR (90% CI) [1, 3]	Cmax % GMR (90% CI) [1, 3]	Ctau % GMR (90% CI) [1, 3]	AUCtau % GMR (90% CI) [1, 4]	Cmax % GMR (90% CI) [1, 4]	Ctau % GMR (90% CI) [1, 4]	Reduction in the dose of the Compound with lopinavir while maintaining an equivalent exposure [2]	Dose of the Compound with lopinavir/r giving systemic exposure (AUC) similar to a 150 mg dose without lopinavir ([2]; reference is the 150 mg ritonavir-boosted dose without lopinavir)	Dose of the Compound with lopinavir/r giving systemic exposure (AUC) similar to a 300 mg dose without lopinavir ([2]; reference is the 300 mg ritonavir-boosted dose without lopinavir)	Compound	Trough concentrations when coadministered with the Compound ([1]; relative to recommended target troughs)
unaltered	103%	114%	88.3%	–	–	–	–	–	–	CC(C)c1nc(CN(C)C(=O)NC(C(=O)NC(Cc2ccccc2)CC(O)C(Cc2ccccc2)NC(=O)OCc2cncs2)C(C)C)cs1 (stereo not drawn) [RTV, 1,3-thiazol-5-ylmethyl[3-hydroxy-5-[3-methyl-2-[methyl-[(2-propan-2-yl-1,3-thiazol-4-yl)methyl]carbamoyl]amino-butanoyl]amino-1,6-diphenyl-hexan-2-yl]aminoformate]	–
unaltered	96.6%	99.2%	92.3%	–	–	–	–	–	–	Cc1cccc(C)c1OCC(=O)N[C@@H](Cc1ccccc1)[C@@H](O)C[C@H](Cc1ccccc1)NC(=O)[C@H](C(C)C)N1CCCNC1=O [LPV, (2S)-N-[(2S,4S,5S)-5-{[2-(2,6-dimethyl-phenoxy)acetyl]amino}-4-hydroxy-1,6-diphenyl-hexan-2-yl]-3-methyl-2-(2-oxo-1,3-diazinan-1-yl)butanamide]	maintained above recommended target troughs
–	–	–	–	175 (150, 204) %	152 (129, 179) %	238 (181, 313) %	40-60%	85 mg and 85 ± 10 mg	150 mg	COc1cc2c(cc1Cc1cccc(Cl)c1F)c(=O)c(C(=O)O)cn2[C@H](CO)C(C)C [the Compound, 6-(3-chloro-2-fluorobenzyl)-1-[(2S)-1-hydroxy-3-methylbutan-2-yl]-7-methoxy-4-oxo-1,4-dihydroquinoline-3-carboxylic acid]	–
